Here are results for one compound from patent US20220056075A1, “METHOD FOR TREATING OPIOID USE DISORDER” (THE ADMINISTRATORS OF THE TULANE EDUCATIONAL FUND, priority 2019, published 2022).

This series deals with dopamine (DA) neurons in the posterior VTA. Put plainly: VTA dopamine cell soma morphology (TH staining, STEREO INVESTIGATOR). Particulars: 5 consecutive daily i.v. injections; morphine effect at 5.6 mg/Kg. The format is in vivo, rat. The procedure:
DA morphology analysis: Fifteen min following the final CPP test session, rats were anesthetized with a mixture of ketamine/xylazine (85/10 mg/Kg, i.p., respectively) and perfused intracardially with 200 mL of 0.1 mol/L phosphate buffered saline (PBS) immediately followed by 300 mL of 4% paraformaldehyde in 0.1 mol/L PBS (pH=7.4). Brains were removed and post-fixed at 4° C. in the same fixative for 18 h. After post-fixation, brains were incubated in 30% sucrose at 4° C. for 2 days and sectioned coronally on a cryostat at 40 μm at the level of the posterior VTA (Spiga et al., 2003; Chu et al., 2008). After 2 consecutive washes in PBS, sections were blocked with 5% normal donkey serum (NDS) for 1 h, and incubated with the primary antibody anti-tyrosine-hydroxylase (anti-TH, 1: 3000 Cell Signaling Technology, Danvers, Mass.) overnight at 4° C. Slices were washed twice in PBS, re-blocked for 1 h, and incubated with the secondary antibody ALEXA594 (Life Technologies, Carlsbad, Calif.), for 2 h. Sections were washed, mounted on slides with PROLONG GOLD (Life Technologies), and stored at 4° C. Posterior VTA sections were verified according to the atlas of Paxinos and Watson (2007). Images of the parabrachial pigmented area (PBP) and the paranigral area (PN) subregions of the posterior VTA were captured in z-stacks (1 μm) with at least 5 tissue slices per rat and 5-6 rats per drug group. STEREO INVESTIGATOR software (MBF Bioscience; Williston, Va.) was used to quantify soma size using the optical fractionator probe to survey a sample of neurons in each z-stack while the nucleator probe was used to measure the cross-sectional area and volume of each cell soma. The optical fractionator probe was used to quantify the number of cells in a particular section of tissue through systematic random sampling. Between 12 and 16 regions were surveyed per z-stack. While the optical fractionator probe utilized stereological techniques to select a random sample to be analyzed, the nucleator probe measured the cross-sectional area of each neuron. Therefore, the simultaneous use of these probes systematically assessed neurons in the PBP and PN regions of the VTA in each subject, and provided morphological data for these cells including surface area (μm^2) and volume (μm^3). Cell somas were eligible to be quantified if they were located within the counting frame and/or if the soma touched either of the nucleator frame's green borders. Neurons were ineligible if located outside the counting frame and/or if their soma touched the frame's red borders. After determining this optimum depth, the center of the soma was located and analyzed by the nucleator probe. To eliminate bias associated with tissue orientation, nucleator rays were randomly arranged between quantifications. […]

Regarding `NC(=O)CNC(=O)[C@@H]1CCC(=O)NCCCC[C@@H](NC(=O)[C@@H](N)Cc2ccc(O)cc2)C(=O)N[C@@H](Cc2c[nH]c3ccccc23)C(=O)N[C@@H](Cc2ccccc2)C(=O)N1` [ZH853, Tyr-c[D-Lys-Trp-Phe-Glu]-Gly-NH2], the “surface area of TH-positive somas in pVTA” value is recorded as “did not alter” and the “volume of TH-positive somas in pVTA” value is reported as “did not alter”.
